Assay results as given in ChEMBL document CHEMBL5352473, “Design, synthesis, biological evaluation and crystal structure determination of dual modulators of carbonic anhydrases and estrogen receptors” (Eur J Med Chem, 2023).
Active and inactive are the calls of the source. The rule behind the calls is not given here.

How the values were obtained:
Carbonic anhydrase 12 = Carbonic anhydrase 12 (Homo sapiens, UniProt O43570); test: Binding affinity to human CA12 assessed as inhibition constant incubated for 6 hrs by phenol red dye based stopped flow CO2 hydration assay
Carbonic anhydrase 12, sequence (O43570 whole entry): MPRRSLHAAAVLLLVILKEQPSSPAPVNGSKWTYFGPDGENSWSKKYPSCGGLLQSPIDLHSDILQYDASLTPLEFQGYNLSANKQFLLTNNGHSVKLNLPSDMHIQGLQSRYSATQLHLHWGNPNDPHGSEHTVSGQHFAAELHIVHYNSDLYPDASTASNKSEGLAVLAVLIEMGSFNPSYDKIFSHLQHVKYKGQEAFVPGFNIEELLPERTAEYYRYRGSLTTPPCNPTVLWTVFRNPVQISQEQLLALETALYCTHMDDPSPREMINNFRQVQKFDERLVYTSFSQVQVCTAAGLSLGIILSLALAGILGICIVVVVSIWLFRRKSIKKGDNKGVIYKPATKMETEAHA

Carbonic anhydrase 1 = Carbonic anhydrase 1 (Homo sapiens, UniProt P00915); test: Binding affinity to human CA1 assessed as inhibition constant incubated for 6 hrs by phenol red dye based stopped flow CO2 hydration assay
Carbonic anhydrase 1, sequence (P00915 whole entry): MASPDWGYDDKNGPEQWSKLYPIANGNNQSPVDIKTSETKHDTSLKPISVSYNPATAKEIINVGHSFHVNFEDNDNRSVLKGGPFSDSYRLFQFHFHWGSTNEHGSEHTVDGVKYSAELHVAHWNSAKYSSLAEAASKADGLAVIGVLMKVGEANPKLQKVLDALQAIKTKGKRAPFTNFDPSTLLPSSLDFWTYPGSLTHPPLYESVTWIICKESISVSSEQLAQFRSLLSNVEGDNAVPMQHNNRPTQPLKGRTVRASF

Carbonic anhydrase 2 = Carbonic anhydrase 2 (Homo sapiens, UniProt P00918); test: Binding affinity to human CA2 assessed as inhibition constant incubated for 6 hrs by phenol red dye based stopped flow CO2 hydration assay
Carbonic anhydrase 9 = Carbonic anhydrase 9 (Homo sapiens, UniProt Q16790)
Description: Binding affinity to human CA9 assessed as inhibition constant incubated for 6 hrs by phenol red dye based stopped flow CO2 hydration assay

[1] = biological target: Estrogen receptor beta (Homo sapiens) (UniProt Q92731); test: Partial agonist activity at wild type human ERbeta in HEK-293T cells transfected with 3xERE-driven luciferase reporter plasmid by luciferase reporter gene assay; type: cell-based
Estrogen receptor beta (Homo sapiens), sequence (Q92731 whole entry): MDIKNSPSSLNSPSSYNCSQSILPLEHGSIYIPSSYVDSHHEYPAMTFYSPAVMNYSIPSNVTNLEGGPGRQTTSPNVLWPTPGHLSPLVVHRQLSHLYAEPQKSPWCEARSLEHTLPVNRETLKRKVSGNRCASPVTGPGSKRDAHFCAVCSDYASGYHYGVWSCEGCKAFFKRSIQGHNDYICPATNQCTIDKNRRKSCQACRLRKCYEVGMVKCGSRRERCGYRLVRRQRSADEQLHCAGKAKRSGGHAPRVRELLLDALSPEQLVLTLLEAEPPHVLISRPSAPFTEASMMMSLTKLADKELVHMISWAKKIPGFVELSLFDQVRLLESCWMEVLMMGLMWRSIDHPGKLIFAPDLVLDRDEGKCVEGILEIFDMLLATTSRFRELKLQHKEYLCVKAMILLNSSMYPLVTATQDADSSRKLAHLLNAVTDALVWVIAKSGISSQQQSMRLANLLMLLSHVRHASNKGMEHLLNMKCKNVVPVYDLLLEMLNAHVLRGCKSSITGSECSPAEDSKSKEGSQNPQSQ

In the case of `NS(=O)(=O)c1ccc2c(c1)C1C=CCC1C(c1ccccc1Cl)N2` (racemic), the Ki (Carbonic anhydrase 12) is reported as 256 nM, the Ki (Carbonic anhydrase 1) is reported as 73.6 nM and the Ki (Carbonic anhydrase 2) is reported as 2.2 nM. The Ki (Carbonic anhydrase 9) was 2090 nM and the Activity [1] was “inactive”.
